The source of these data is paper PMC10381533, “Inhibitory Effects of the Fungal Pigment Rubiginosin C on Hyphal and Biofilm Formation in Candida albicans and Candida auris” (Journal of Fungi, 2023).

Molecules are shown by their SMILES.

On the set-up of data set [1]: method as in PMID 15921417. The note with it: OA alone; cited from earlier work.
Data set [2] concerns C. albicans CAI-4 HWP1-lacZ [ZK3379]. The data set can be described thus: MIC assay, C. albicans CAI-4 HWP1-lacZ. It is filed as cell-based, Candida albicans. The note with it: tested 250–2 µg/mL. As to the method:
(§1) The MICs of rubiginosin- and rutilin-type azaphilones—in detail, Rub A, C, W, Z, and Rut A and B—were determined as described previously using the selected pathogens C. albicans [DSM 11225, DSM 1665], C. albicans CAI-4 HWP1-lacZ [ZK3379] and C. auris [DSM 21092] (see Table S1 for detailed information). All compounds were tested within the concentration range of 250 µg/mL–2 µg/mL for C. albicans [DSM 11225, DSM 1665], C. albicans CAI-4 HWP1-lacZ [ZK3379], C. auris [DSM 21092]. […]
(§2) All compounds were fully dissolved in
(§3) The assay was conducted as a minimum inhibitory concentration (MIC) assay in 96-well round-bottom microtiter plates using the parameters summarized in table S1 and as already described in [2]. Stocks of the test organisms were generated by growing the organisms overnight in 250 mL (Candida albicans [DSM 11225], [DSM 1665], CAI-4 HWP1-lacZ, Candida auris [DSM 21092]) or 50 mL shaking (the rest organisms) flasks filled with 25 mL of the growth medium at 140 rpm (for media and temperatures see table S1). After incubation overnight, the OD of the suspension was measured and adjusted by diluting with the respective growth medium. OD600 nm was adjusted to 0.01 for bacteria and OD600 nm to 0.1 for fungi and 150 μL of the adjusted suspensions were added to all wells of a 96-well microtiter plate (one test organism per plate). Subsequently, additional 130 μL (1 mg/mL tested compounds) or 142.5 μL (10 mg/mL tested compounds ) of suspensions, plus 20 μL (1 mg/mL tested compounds) respectively 7.5 μL (10 mg/mL tested compounds ) of the test compounds were added to first row. C ontrols (one compound/column) were added as well: MeOH were used as solvent control, while different positive controls (reference drugs ) were used for the according test organisms (see table S1). Starting from row A, 150 μL of the suspension were transferred […]
(§4) to the next row, the contents thoroughly mixed, and 150 μL transferred to the following row. The remaining 150 μL after row H were discarded.
(§5) 66.7 μg/mL in row A to 0.52 μg/mL in row H (1 mg/mL tested compounds) or 250 μg/mL in row A to 2 μg/mL in row H (10 mg/mL tested compounds).
(§6) The 96-well microtiter plates were then incubated overnight on a microplate shaker at 800 rpm at 30 or 37 °C (see table S1) and were visually evaluated the next day. The MIC is defined as the lowest concentration where no growth of the test organism was observed. A lower MIC thus corresponds to a higher antimicrobial activity […]
(§7) Table S1: MIC assay experiment parameters.
(§8) Tested organisms Strain No. Growth Incubation Positive control medium temp. [°C ] (reference)
(§9) KB-3-1 (ACC 158) cervix carcinoma as well as L929 (ACC 2) mouse fibroblasts were cultured under standard cell culture conditions (37 °C, 5% CO2, 95% humidified atmosphere). The cells were maintained in high glucose DMEM containing 10% fetal bovine serum and 100 U/mL penicillin and streptomycin (Gibco, Thermo Fisher Scientific, Waltham, USA). Cell lines were serially passaged after trypsinization, using 0.05% trypsin / 0.02% EDTA solution. The cultures were routinely monitored for potential contamination, and only mycoplasma free cultures were used. The test compounds were investigated for their anti-proliferative effect on cell lines, using the 3-(4,5-dimethylthiazol-2-yl)-2,5-diphenyltetrazolium bromide (MTT) based cell viability assay. […]

Data set [3] has as its system C. albicans [DSM 1665]. Also noted: method as in doi:10.1002/ejoc.202001661. To be noted: highest tested concentration 250 µg/mL; cited from earlier work.
The subject of data set [4] is C. albicans [DSM 11225] biofilm. Kind of data set: Crystal violet biofilm formation assay, C. albicans. It is filed as cell-based, Candida albicans. To be noted: CV assay, 24 h treatment. As to the method:
The fungal pathogens C. auris [[…]] or C. albicans [DSM 11225] were cultured from stock in 25 mL YPD medium in a 250 mL flask (30 °C, 100 rpm, 18 h). The turbidity of the broth was measured at 280 nm using a spectrophotometer (Nanodrop 2000c, Thermo Fisher Scientific, Waltham, MA, USA) and diluted to match the turbidity of a 0.5 McFarland standard in RPMI 1640 medium (Gibco, New York, NY, USA; Thermo Fisher Scientific), supplemented with […] 3-(N-morpholino)propanesulfonic acid (MOPS, Carl Roth, Karlsruhe, Germany) for C. auris, or 0.05 McFarland standard in RPMI 1640 medium in the case of C. albicans. Subsequently, 150 μL of the fungal dispersion were added into each well of a 96-well microtiter plate (Falcon no. 351172, Thermo Fisher Scientific) and further incubated (37 °C, 150 rpm, 2 h [C. auris] or 90 min [C. albicans]). The supernatant was discarded and the plate was rinsed one time by using a PBS buffer. Afterwards, azaphilones (Rub A, C, W, Z, and Rut A and B) were serially diluted in 150 μL in fresh medium to concentrations of 250–2 μg/mL (Rub C for C. auris: 250–0.02 μg/mL). […] The absorbance was measured by a plate reader (Synergy 2, BioTek, Santa Clara, CA, USA) at 570 nm for C. auris or 610 nm for C. albicans. […]

Data set [5] deals with murine fibroblasts (L929) and human endocervical adenocarcinoma cells (KB-3-1). Further details: method as in doi:10.1002/ejoc.202001661. The note with it: range over Rub A and Rub Z and over both cell lines; cited from earlier work.
For data set [6], the system named is human endocervical adenocarcinoma KB-3-1 [ACC 158] cells. To be noted: cited from earlier work.
The subject of data set [7] is mouse fibroblasts L929 [ACC 2]. The note with it: cited from earlier work.
For data set [8], the system named is C. albicans [DSM 11225]. Kind of data set: MIC assay, C. albicans DSM 11225. Type of data set: cell-based, Candida albicans. To be noted: tested 250–2 µg/mL. The procedure:
as §1, §2, §3, §4, §5, §6, §7, §8, §9

For data set [9], the system named is C. auris biofilm. Kind of data set: Crystal violet biofilm formation assay, C. auris. It is filed as cell-based, Candida auris. The note with it: for effect on formation of C. auris biofilms: CV assay, 24 h treatment; for inhibition at 2 µg/mL / inhibition at 3.9 µg/mL / inhibition at 7.8 µg/mL / inhibition at 15.6 µg/mL / inhibition at 31.3 µg/mL / inhibition at 62.5 µg/mL / inhibition at 125 µg/mL / inhibition at 250 µg/mL: Candidozyma auris, read-out: inhibition of C. auris biofilm formation compared to solvent control (= 0%). As to the method:
The fungal pathogens C. auris [[…]] or C. albicans [DSM 11225] were cultured from stock in 25 mL YPD medium in a 250 mL flask (30 °C, 100 rpm, 18 h). The turbidity of the broth was measured at 280 nm using a spectrophotometer (Nanodrop 2000c, Thermo Fisher Scientific, Waltham, MA, USA) and diluted to match the turbidity of a 0.5 McFarland standard in RPMI 1640 medium (Gibco, New York, NY, USA; Thermo Fisher Scientific), supplemented with […] 3-(N-morpholino)propanesulfonic acid (MOPS, Carl Roth, Karlsruhe, Germany) for C. auris, or 0.05 McFarland standard in RPMI 1640 medium in the case of C. albicans. Subsequently, 150 μL of the fungal dispersion were added into each well of a 96-well microtiter plate (Falcon no. 351172, Thermo Fisher Scientific) and further incubated (37 °C, 150 rpm, 2 h [C. auris] or 90 min [C. albicans]). The supernatant was discarded and the plate was rinsed one time by using a PBS buffer. Afterwards, azaphilones (Rub A, C, W, Z, and Rut A and B) were serially diluted in 150 μL in fresh medium to concentrations of 250–2 μg/mL (Rub C for C. auris: 250–0.02 μg/mL). Methanol (2.5%) was used as a solvent control and both, nystatin (NYS; Thermo Fisher Scientific) and farnesol (FA; Sigma Aldrich, St. Louis, MO, USA) as positive controls (250–2 μg/mL) for C. auris and C. albicans, respectively. Plates were further incubated (37 °C, 150 rpm, 24 h). The supernatant was discarded and biofilms were washed with PBS, stained by adding 150 μL of the crystal violet (CV; Sigma Aldrich) solution (0.1%), and incubated (room temperature, 25 min). Afterwards, the plates were washed twice with PBS buffer. A total of 150 μL ethanol (95%) were applied to dissolve the biofilm-bound CV. The absorbance was measured by a plate reader (Synergy 2, BioTek, Santa Clara, CA, USA) at 570 nm for C. auris or 610 nm for C. albicans. Error bars indicate SD with duplicates in two biological repeats.

Data set [10] relates to C. auris [DSM 21092]. The data set can be described thus: MIC assay, C. auris. Type of data set: cell-based, Candida auris. To be noted: tested 250–2 µg/mL. As to the method:
as §1, §2, §3, §4, §5, §6, §7, §8, §9

Take `Cc1cc(O)cc(O)c1C(=O)O` [OA, orsellinic acid]: the cytotoxicity entry in data set [1] was “no cytotoxicity”.
One may read the IC50 as the concentration that inhibits the measured activity by half. As a reminder, the inhibition is the drop in the measured response relative to a control, in per cent. On to `CC(=O)OC/C=C/C1=CC2=C(CO1)C(=O)[C@@](C)(O)[C@@H](OC(=O)c1c(C)cc(O)cc1O)C2` [Rub A, rubiginosin A], for which the MIC entry in data set [2] was “no antimicrobial activity”. For the same compound, in [3], the MIC result is reported as “no antimicrobial activity”. Also, in data set [4], the “concentration above which significant effects on C. albicans biofilm formation start” value is on record as “above 31.3 µg/mL”. Moreover, the IC50 values between in [5] is 2.6 to 4.5 µg/mL. Further, the IC50 in data set [6] was 5.2 µM. Further, in data set [7], the IC50 was 3.2 µM. In addition, the MIC entry in [8] was “no antimicrobial activity”. In data set [9], the “effect on formation of C. auris biofilms” value is “did not affect the formation”, the inhibition at 2 µg/mL was less than 20%, the inhibition at 3.9 µg/mL is less than 20% and the inhibition at 7.8 µg/mL is less than 20%. Also, in data set [9], the inhibition at 15.6 µg/mL was less than 20%, the inhibition at 31.3 µg/mL was less than 20%, the inhibition at 62.5 µg/mL is less than 20% and the inhibition at 125 µg/mL was less than 20%. Besides, the inhibition at 250 µg/mL in [9] was less than 20%. For the same compound, the MIC result in [10] is given as “no antimicrobial activity”.
For `CC(=O)OC/C=C/C1=CC2=C(CO1)C(=O)[C@@](C)(OC(=O)c1c(C)cc(O)cc1O)[C@@H](O)C2` [Rub Z, rubiginosin Z], in data set [2], the MIC result is “no antimicrobial activity”. Moreover, the MIC result in data set [3] is “no antimicrobial activity”. For the same compound, the IC50 values between in data set [5] was 2.6 to 4.5 µg/mL. Further, in data set [6], the IC50 was 5.2 µM. Further, the IC50 in [7] is 4.7 µM. Further, the MIC result in data set [8] is reported as “no antimicrobial activity”. Further, in data set [9], the “effect on formation of C. auris biofilms” value is “did not affect the formation”, the inhibition at 2 µg/mL is less than 20%, the inhibition at 3.9 µg/mL is less than 20% and the inhibition at 7.8 µg/mL is less than 20%. Further, in [9], the inhibition at 15.6 µg/mL is less than 20%, the inhibition at 31.3 µg/mL is less than 20%, the inhibition at 62.5 µg/mL is less than 20% and the inhibition at 125 µg/mL is less than 20%. Moreover, in data set [9], the inhibition at 250 µg/mL was less than 20%. Moreover, the MIC entry in [10] is “no antimicrobial activity”.
